Common to all, as to format: cell-based
In assay [1] the target is T1, hGLP-1R (Homo sapiens, UniProt P43220). Nature of the assay: Functional cAMP activity in the presence of 1% HSA. As to conditions: read-out: cAMP Rel EC50, hGLP-1R.
The next assay has as its target human GcgR (Homo sapiens, UniProt P47871). Nature of the assay: Functional cAMP activity in the presence of 1% HSA. Conditions: read-out: cAMP Rel EC50, hGcgR.
Assay [2] deals with T2, hGIPR (Homo sapiens, UniProt P48546).
T2 sequence (P48546 22-466): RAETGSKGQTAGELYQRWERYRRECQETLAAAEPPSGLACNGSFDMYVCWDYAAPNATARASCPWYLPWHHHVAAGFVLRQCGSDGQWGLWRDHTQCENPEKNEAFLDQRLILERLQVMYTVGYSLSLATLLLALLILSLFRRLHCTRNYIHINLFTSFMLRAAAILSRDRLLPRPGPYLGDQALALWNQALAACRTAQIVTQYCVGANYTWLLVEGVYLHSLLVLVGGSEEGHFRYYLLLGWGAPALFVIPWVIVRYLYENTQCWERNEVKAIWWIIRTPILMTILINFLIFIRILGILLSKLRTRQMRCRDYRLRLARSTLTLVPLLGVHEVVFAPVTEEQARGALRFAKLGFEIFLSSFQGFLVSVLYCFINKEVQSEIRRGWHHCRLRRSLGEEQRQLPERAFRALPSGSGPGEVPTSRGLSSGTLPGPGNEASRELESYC
Nature of the assay: Functional cAMP activity in the presence of 1% HSA. Conditions: read-out: cAMP Rel EC50, hGIPR.

A further assay deals with human GLP1-R (Homo sapiens, UniProt P43220). The experiment in a line: GLP1-R internalization assay in HEK293 cells. As to conditions: for pEC50: HEK293 cells expressing SNAP-GLP-1R, read-out: GLP1R Internalization EC50; for Internalization % TOP: normalized to maximum concentration of GLP-1 (100%).
A further assay concerns the target hGcgR (Homo sapiens, UniProt P47871). Nature of the assay: Functional cAMP activation in the presence of 0.1% casein (no HSA). Conditions: in the presence of 0.1% casein (no HSA); geometric mean; read-out: Relative cAMP EC50, hGcgR.
The target in assay [3] is T1, hGLP-1R. The description is as above. As to conditions: in the presence of 0.1% casein (no HSA); geometric mean; read-out: Relative cAMP EC50, hGLP-1R.
The target in assay [4] is T2, hGIPR. The description is as above. As to conditions: in the presence of 0.1% casein (no HSA); geometric mean; read-out: Relative cAMP EC50, hGIPR.

pEC50: −log10 of the molar value. Starred links: 1 amine or outer side, 2 acyl side, 3 side chain; linkers in the order of their positions; H or OH if unused. Non-standard residues stand in square brackets, D forms with d. Groups on a side chain read outwards from the residue. *: point of attachment. C18 diacid = O=C(O)CCCCCCCCCCCCCCCCC(=O)*; γGlu = O=C(O)[C@H](CCC(=O)[*:2])N[*:1]; 4Pal = N[C@@H](Cc1ccncc1)C(=O)O; αMeL = CC(C)C[C@](C)(N)C(=O)O; Orn = NCCC[C@H](N)C(=O)O; AEEA = NCCOCCOCC(=O)O; Aib = CC(C)(N)C(=O)O
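For Relative cAMP EC50, hGIPR in this document: intracellular cAMP rise after 30 min at 37 °C read by HTRF against a standard curve, scaled between buffer alone (0%) and top control ligand concentration (100%), four-parameter fit.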
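For Relative cAMP EC50, hGLP-1R in this document: intracellular cAMP rise after 30 min at 37 °C read by HTRF, normalized between buffer only (0%) and maximal control ligand (100%), four-parameter variable-slope fit.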
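For Relative cAMP EC50, hGcgR in this document: intracellular cAMP rise after 30 min at 37 °C, read by HTRF against a cAMP standard curve, scaled from buffer only (0%) to maximal control ligand response (100%).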

T1 sequence (P43220 24-463): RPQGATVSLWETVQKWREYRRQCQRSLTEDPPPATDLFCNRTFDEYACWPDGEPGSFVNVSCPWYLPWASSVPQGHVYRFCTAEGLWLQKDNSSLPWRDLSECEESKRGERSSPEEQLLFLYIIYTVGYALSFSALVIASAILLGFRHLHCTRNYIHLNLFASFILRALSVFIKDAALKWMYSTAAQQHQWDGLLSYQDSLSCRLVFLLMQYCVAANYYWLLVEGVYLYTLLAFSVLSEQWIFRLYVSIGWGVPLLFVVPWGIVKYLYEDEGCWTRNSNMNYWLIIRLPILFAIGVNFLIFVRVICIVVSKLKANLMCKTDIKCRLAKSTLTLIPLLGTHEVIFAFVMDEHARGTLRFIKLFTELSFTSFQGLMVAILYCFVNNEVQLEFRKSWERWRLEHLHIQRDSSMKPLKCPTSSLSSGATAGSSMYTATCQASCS
human GLP1-R, sequence (P43220 24-463): as above
human GcgR, sequence (P47871 26-477): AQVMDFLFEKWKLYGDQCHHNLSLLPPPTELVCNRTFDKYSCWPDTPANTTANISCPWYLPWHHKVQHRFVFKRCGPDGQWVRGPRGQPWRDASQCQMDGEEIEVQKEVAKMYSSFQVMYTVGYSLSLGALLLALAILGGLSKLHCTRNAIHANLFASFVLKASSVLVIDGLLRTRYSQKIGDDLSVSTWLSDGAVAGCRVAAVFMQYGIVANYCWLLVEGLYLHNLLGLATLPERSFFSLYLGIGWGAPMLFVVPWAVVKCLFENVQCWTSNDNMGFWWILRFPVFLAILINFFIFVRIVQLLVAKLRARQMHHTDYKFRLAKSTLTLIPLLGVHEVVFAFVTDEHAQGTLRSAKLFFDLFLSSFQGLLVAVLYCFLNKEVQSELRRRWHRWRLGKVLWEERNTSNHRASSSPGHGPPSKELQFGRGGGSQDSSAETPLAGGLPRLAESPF
hGcgR, sequence (P47871 26-477): as above

In the case of “H-Y[Aib]QGTFTSDFS[Orn][αMeL]LDKK([AEEA-γGlu-C18 diacid])AQ[Aib]AFIEWLLEGGTSSGAPPPSGS-NH2 [Example 176]”, the pEC50 at hGLP-1R [1] is 6.41; at human GcgR it was 6.34; on hGIPR [2], 7.39; at human GLP1-R it was 6.99; on hGcgR, 8.39; at hGLP-1R [3], 8.53. Moreover, the pEC50 at hGIPR [4] is 9.67. Moreover, the “Internalization % TOP” value at human GLP1-R was 48%.

As to “H-Y[Aib]QGTFTSDFS[Orn][αMeL]LDKK([AEEA-γGlu-C18 diacid])AQ[Aib]AFIEWLLEGGTSSGAPPPSGT-NH2 [Example 177]”, the pEC50 at hGLP-1R [1] was 6.32; on human GcgR, 6.12; on hGIPR [2], 7.46; at human GLP1-R, 7.10; on hGcgR it was 8.37; on hGLP-1R [3] it was 8.53. The pEC50 at hGIPR [4] was 9.67. The “Internalization % TOP” value at human GLP1-R came out at 44%.

Turning to “H-Y[Aib]QGTFTSDFS[Orn][αMeL]LDKK([AEEA-γGlu-C18 diacid])AQ[Aib]AFIEYLIE[Aib]GESSGAPPPSGE-NH2 [Example 219]”, the pEC50 was 6.66 on hGLP-1R [1]; 5.73 on human GcgR; 7.63 at hGIPR [2]; 7.32 at human GLP1-R; 8.11 at hGcgR; 9.08 at hGLP-1R [3]. On hGIPR [4], the pEC50 is 9.92. On human GLP1-R, the “Internalization % TOP” value worked out at 37.2%.

“H-Y[Aib]QGTFTSDFS[Orn][αMeL]LDKK([AEEA-γGlu-C18 diacid])AQ[Aib]AFIEYLIE[Aib]GESSGAPPPSGS-NH2 [Example 218]”: the pEC50 on hGLP-1R [1] is 6.82; on human GcgR, 5.83; at hGIPR [2], 7.82; on human GLP1-R, 7.09; at hGcgR it was 8.10; on hGLP-1R [3], 9.12. At hGIPR [4], the pEC50 is 10.07. In addition, at human GLP1-R, the “Internalization % TOP” value came out at 35%.

As for “H-Y[Aib]QGTFTSDFS[Orn][αMeL]LDKK([AEEA-γGlu-C18 diacid])AQ[Aib]AFIEYLLAGGPSSGAPPPEGE-NH2 [Example 99]”, the pEC50 at hGLP-1R [1] was 6.23; on human GcgR it was 5.95; on hGIPR [2] it was 7.53; at human GLP1-R, 7.24; on hGcgR it was 8.22; on hGLP-1R [3], 8.45. Also, the pEC50 at hGIPR [4] is 9.76. Moreover, at human GLP1-R, the “Internalization % TOP” value was 46.1%.

“H-Y[Aib]QGTFTSDFS[Orn][αMeL]LDKK([AEEA-γGlu-C18 diacid])AQ[Aib]AFIEYLLAGGPSSGAPPPSGD-NH2 [Example 85]”: the pEC50 at hGLP-1R [1] was 6.41; at human GcgR, 5.90; at hGIPR [2], 7.66; at human GLP1-R, 6.49; on hGcgR it was 8.12; on hGLP-1R [3], 8.56. For the same substance, the pEC50 at hGIPR [4] was 9.80. For the same substance, the “Internalization % TOP” value on human GLP1-R stood at 48.3%.

Regarding “H-Y[Aib]QGTFTSDFS[Orn][αMeL]LDKK([AEEA-γGlu-C18 diacid])AQ[Aib]AFIEYLLAGGPSSGAPPPSGE-NH2 [Example 86]”, the negative-log EC50 (pEC50) was 6.38 on hGLP-1R [1]; 5.95 on human GcgR; 7.71 on hGIPR [2]; 7.24 on human GLP1-R; 8.14 at hGcgR; 8.61 on hGLP-1R [3]. Further, the pEC50 at hGIPR [4] was 9.84. The “Internalization % TOP” value at human GLP1-R is reported as 52.5%.

“H-Y[Aib]QGTFTSDFS[Orn][αMeL]LDKK([AEEA-γGlu-C18 diacid])AQ[Aib]AFIEYLLAGGPSSGAPPPSGS-NH2 [Example 95]”: the pEC50 was 6.42 on hGLP-1R [1]; 5.95 at human GcgR; 7.74 on hGIPR [2]; 7.42 on human GLP1-R; 8.08 at hGcgR; 8.71 at hGLP-1R [3]. For the same substance, the pEC50 at hGIPR [4] was 9.94. Moreover, at human GLP1-R, the “Internalization % TOP” value stood at 49.3%.

For the substance “H-Y[Aib]QGTFTSDFS[Orn][αMeL]LDKK([AEEA-γGlu-C18 diacid])AQ[Aib]AFIEYLLAGGPSSGAPPPSGSE-NH2 [Example 90]”, the pEC50 on hGLP-1R [1] is 6.43; on human GcgR it was 6.00; at hGIPR [2] it was 7.60; on human GLP1-R it was 7.15; on hGcgR, 8.02; on hGLP-1R [3], 8.57. Also, the pEC50 at hGIPR [4] is 9.76. Moreover, at human GLP1-R, the “Internalization % TOP” value worked out at 49.8%.

Turning to “H-Y[Aib]QGTFTSDFS[Orn][αMeL]LDKK([AEEA-γGlu-C18 diacid])AQ[Aib]AFIEYLLAGGPSSGAPPPSGT-NH2 [Example 87]”, the pEC50 is 6.54 at hGLP-1R [1]; 5.95 on human GcgR; 7.89 on hGIPR [2]; 7.21 on human GLP1-R; 8.07 on hGcgR; 8.56 on hGLP-1R [3]. In addition, at hGIPR [4], the pEC50 was 9.89. At human GLP1-R, the “Internalization % TOP” value is 45.4%.

With “H-Y[Aib]QGTFTSDFS[Orn][αMeL]LDKK([AEEA-γGlu-C18 diacid])AQ[Aib]AFIEYLLAGGPSSGEPPPSGE-NH2 [Example 97]”, the pEC50 at hGLP-1R [1] is 6.22; on human GcgR it was 5.90; at hGIPR [2], 7.62; on human GLP1-R it was 7.28; on hGcgR, 8.17; on hGLP-1R [3], 8.49. The pEC50 at hGIPR [4] was 9.75. Besides, the “Internalization % TOP” value on human GLP1-R worked out at 50.7%.

As for “H-Y[Aib]QGTFTSDFS[Orn][αMeL]LDKK([AEEA-γGlu-C18 diacid])AQ[Aib]AFIEYLLEGGHSSGAPPPGGS-NH2 [Example 162]”, the pEC50 at hGLP-1R [1] was 6.10; at human GcgR it was 6.25; on hGIPR [2] it was 7.43; at human GLP1-R, 7.31; on hGcgR, 8.33; at hGLP-1R [3], 8.33. Besides, the pEC50 at hGIPR [4] is 9.65. Besides, at human GLP1-R, the “Internalization % TOP” value was determined as 44.8%.

Turning to “H-Y[Aib]QGTFTSDFS[Orn][αMeL]LDKK([AEEA-γGlu-C18 diacid])AQ[Aib]AFIEYLLEGGHSSGEPPPGGS-NH2 [Example 164]”, the pEC50 is 6.02 on hGLP-1R [1]; 6.39 on human GcgR; 7.23 on hGIPR [2]; 7.34 at human GLP1-R; 8.53 on hGcgR; 8.30 on hGLP-1R [3]. Further, the negative-log EC50 (pEC50) at hGIPR [4] is 9.52. Besides, the “Internalization % TOP” value on human GLP1-R was 46.5%.

For “H-Y[Aib]QGTFTSDFS[Orn][αMeL]LDKK([AEEA-γGlu-C18 diacid])AQ[Aib]AFIEYLLEGGPSSGAPPPGGS[AEEA]-NH2 [Example 66]”, the pEC50 on hGLP-1R [1] was 6.48; on human GcgR, 6.38; on hGIPR [2] it was 7.52; at human GLP1-R it was 7.38; on hGcgR, 8.43; on hGLP-1R [3], 8.41. Further, on hGIPR [4], the pEC50 was 9.66. Moreover, the “Internalization % TOP” value on human GLP1-R came out at 46.3%.

Turning to “H-Y[Aib]QGTFTSDFS[Orn][αMeL]LDKK([AEEA-γGlu-C18 diacid])AQ[Aib]AFIEYLLEGGPSSGAPPPGGT-NH2 [Example 158]”, the pEC50 on hGLP-1R [1] was 6.74; on human GcgR, 6.49; on hGIPR [2], 7.61; at human GLP1-R, 6.98; at hGcgR, 8.43; on hGLP-1R [3], 8.60. The pEC50 at hGIPR [4] is 9.61. For the same substance, the “Internalization % TOP” value at human GLP1-R is 52.4%.

On to “H-Y[Aib]QGTFTSDFS[Orn][αMeL]LDKK([AEEA-γGlu-C18 diacid])AQ[Aib]AFIEYLLEGG[4Pal]SSGAPPPGGS-NH2 [Example 163]”, for which the pEC50 at hGLP-1R [1] is 6.12; at human GcgR, 6.10; on hGIPR [2], 7.28; on human GLP1-R, 6.84; on hGcgR, 8.25; at hGLP-1R [3], 8.19. In addition, the pEC50 at hGIPR [4] was 9.42. At human GLP1-R, the “Internalization % TOP” value is reported as 37.8%.

For the substance “H-Y[Aib]QGTFTSDFS[Orn][αMeL]LDKK([AEEA-γGlu-C18 diacid])AQ[Aib]AFIEYLLE[Aib]GPSSGAPPPSGE-NH2 [Example 110]”, the pEC50 is 6.09 at hGLP-1R [1]; 6.20 at human GcgR; 7.70 on hGIPR [2]; 7.55 at human GLP1-R; 8.61 on hGcgR; 8.52 at hGLP-1R [3]. Besides, the pEC50 on hGIPR [4] is 9.99. Besides, on human GLP1-R, the “Internalization % TOP” value came out at 42.5%.

“H-Y[Aib]QGTFTSDFS[Orn][αMeL]LDKK([AEEA-γGlu-C18 diacid])AQ[Aib]AFIEYLLE[Aib]GPSSGAPPPSGS-NH2 [Example 74]”: the pEC50 is 6.20 at hGLP-1R [1]; 6.15 at human GcgR; 7.80 at hGIPR [2]; 7.14 at human GLP1-R; 8.60 at hGcgR; 8.48 at hGLP-1R [3]. Moreover, the pEC50 on hGIPR [4] was 10.15. On human GLP1-R, the “Internalization % TOP” value is on record as 53.3%.

(Values after patent US20240270821A1, “GIP/GLP1/GCG TRI-RECEPTOR AGONISTS AND USES THEREOF” (priority 2023, published 2024).)
